The text below walks through data of US9908886B2 (Agency for Science, Technology and Research, priority 2012, dated 2018).

The test system of assay [1] is eIF4E Ser209 phosphorylation in Hela cells. Kind of assay: MNK cell-based assay, AlphaScreen SureFire. To be noted: Homo sapiens, 2 hours. The text has this:
It has been reported that Ser209 of eIF4E is solely phosphorylated by the MNK enzymes. The ability of compounds to inhibit this process in Hela cells was investigated using the AlphaScreen SureFire® assay platform from Perkin Elmer (Waltham, Mass.). eIF4E phosphorylated on Ser209 is recognized by two antibodies, the first which is fused to a streptavidin coated donor bead binds to an epitope away from Ser209, the second which is fused to a protein A conjugated acceptor bead binds to phosphorylated Ser209. The phosphorylation of eIF4E on Ser209 brings the two antibodies into close proximity and when excited by a laser a singlet oxygen is released by the donor bead which excites the acceptor bead resulting in the emission of light. This enables the monitoring of eIF4E Ser209 phosphorylation and its inhibition in a cellular context.
Hela cells were seeded into microtitre plates (30,000 cells per well) in 100 μl of culture medium and incubated at 37° C. for 24 hours. The media was then removed by aspiration and the cells resuspended in 50 μl of serum free medium containing the test compound and incubated at 37° C. for 2 hours. The culture medium was again removed by aspiration and the cells resuspended in lysis buffer (provided in Perkin Elmer SureFire® Assay Kit). After agitation at 350 rpm for 20 minutes at 22° C., 4 μl was transferred to a 384 well OptiPlate™ (Perkin Elmer, Waltham, Mass.). To each well was added 5 μl of acceptor mix; the plate was sealed and agitated gently at 22° C. for 2 hours. Then, in subdued light, 2 μl of donor mix was added to each well, the plate was sealed, wrapped in aluminum foil and agitated gently at 22° C. for 2 hours. Emission was measured using the EnVision® plate reader (Perkin Elmer, Waltham, Mass.).
Inhibition constants (IC50) were determined by plotting AlphaScreen signal versus log compound concentration and fitting with a non-linear regression algorithm using GraphPad Prism (GraphPad Software Inc.).
Background: Alpha assays give light when donor and acceptor beads are brought close together.

For the next assay, the target named is MNK1 (Homo sapiens, UniProt Q9BUB5). Kind of assay: In vitro MNK kinase assay (Caliper LabChip mobility shift). It counts as biochemical.
The next assay addresses MNK2 (Homo sapiens (Human), UniProt Q9HBH9). The description is as above. It counts as biochemical.
The mark [2] stands for this setting: enzymatic, 1.2 mM ATP, read-out: IC50 Mnk1.
[3] abbreviates: enzymatic, 250 μM ATP, read-out: IC50 Mnk2.

What is called IC50 is the midpoint of a concentration-inhibition curve.

Structures can show the parent of a compound that is named as a salt. Where two headings read alike, the source gives them in different places.

MNK2, sequence (Q9HBH9 84-388): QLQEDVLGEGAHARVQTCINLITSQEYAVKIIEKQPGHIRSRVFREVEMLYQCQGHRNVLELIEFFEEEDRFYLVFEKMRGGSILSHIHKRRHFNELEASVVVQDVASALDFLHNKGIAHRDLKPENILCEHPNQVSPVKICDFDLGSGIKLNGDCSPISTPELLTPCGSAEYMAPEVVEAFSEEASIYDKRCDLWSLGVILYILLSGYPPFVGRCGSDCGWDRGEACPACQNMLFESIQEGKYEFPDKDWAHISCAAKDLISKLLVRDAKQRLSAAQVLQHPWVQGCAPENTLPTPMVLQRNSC

In the case of `CN1CCN(C(=O)c2ccc(-c3ccc4ncc(-c5ccc(C#N)cc5)n4n3)cc2)CC1` [Example 54], the IC50 in assay [1] is < 1000 nM.

As for `CC(=O)Nc1cc(-c2ccc3ncc(-c4ccc(C#N)cc4)n3c2)ccc1C(=O)N1CCN(C)CC1` [Example 149, N-(5-(3-(4-cyanophenyl)imidazo[1,2-a]pyridin-6-yl)-2-(4-methylpiperazine-1-carbonyl)phenyl)acetamide], the IC50 on MNK1 (setting [2]) and at MNK2 (setting [3]) was < 1000 nM each time. Regarding `N#Cc1ccc(-n2cnc3ccc(-c4ccc(C(=O)N5CCOCC5)cc4)cc32)cc1` [Example 190, 4-(6-(4-(morpholine-4-carbonyl)phenyl)-1H-benzo[d]imidazol-1-yl)benzonitrile], the IC50 on MNK1 and on MNK2 was < 1000 nM each time. Regarding `CC(C)N1CCN(C(=O)c2ccc(-c3ccc4ncc(-c5ccc(C#N)cc5)n4n3)cc2)CC1` [Example 59, 4-(6-(4-(4-isopropylpiperazine-1-carbonyl)phenyl)imidazo[1,2-b]pyridazin-3-yl)benzonitrile], the IC50 on MNK1 (setting [2]) and at MNK2 (setting [3]) was < 100 nM in each case. Take `N#Cc1ccc(-c2cnc3ccc(-c4ccc(C(=O)N5CCC(CN)CC5)cc4)cn23)cc1` [Example 123, 4-(6-(4-(4-(aminomethyl)piperidine-1-carbonyl)phenyl)imidazo[1,2-a]pyridin-3-yl)benzonitrile]: the IC50 at MNK1 (setting [2]) and at MNK2 (setting [3]) was < 100 nM in each case.

On to `N#Cc1ccc(-c2cnc3ccc(-c4ccc(C(=O)N5CCC(N)CC5)cc4)cn23)cc1` [Example 109, 4-(6-(4-(4-aminopiperidine-1-carbonyl)phenyl)imidazo[1,2-a]pyridin-3-yl)benzonitrile], for which the IC50 at MNK1 (setting [2]) and at MNK2 (setting [3]) was < 100 nM in each case. Take `Cc1cc2ncc(-c3ccc(C#N)cc3)n2cc1-c1ccc(C(=O)N2CCN(C)CC2)cc1` [Example 138, 4-(7-methyl-6-(4-(4-methylpiperazine-1-carbonyl)phenyl)imidazo[1,2-a]pyridin-3-yl)benzonitrile]: the concentration for half-maximal inhibition (IC50) at MNK1 (setting [2]) and at MNK2 (setting [3]) was < 1000 nM throughout. Consider `COc1cc(-c2cn3c(-c4ccc(C#N)cc4)cnc3cn2)ccc1C(=O)N1CCN(C)CC1` [Example 39, 4-(6-(3-methoxy-4-(4-methylpiperazine-1-carbonyl)phenyl)imidazo[1,2-a]pyrazin-3-yl)benzonitrile], for which the half-maximal inhibitory concentration (IC50) on MNK1 (setting [2]) and on MNK2 (setting [3]) was < 1000 nM each time.

Consider `CC1(N)CCN(C(=O)c2ccc(-c3cn4c(-c5ccc(C#N)cc5)cnc4cn3)cc2Cl)CC1` [Example 32, 4-(6-(4-(4-amino-4-methylpiperidine-1-carbonyl)-3-chlorophenyl)imidazo[1,2-a]pyrazin-3-yl)benzonitrile], for which the IC50 at MNK1 (setting [2]) is < 100 nM; at MNK2 (setting [3]), < 1000 nM.

For the compound `Cc1cc2ncc(-c3ccc(C#N)cc3)n2cc1-c1ccc(C(=O)N2CCC(C)(N)CC2)cc1` [Example 137, 4-(6-(4-(4-amino-4-methylpiperidine-1-carbonyl)phenyl)-7-methylimidazo[1,2-a]pyridin-3-yl)benzonitrile], the values for the half-maximal inhibitory concentration (IC50) at MNK1 (setting [2]) and at MNK2 (setting [3]) were < 1000 nM and < 100 nM, respectively. With `CNC1CCN(C(=O)c2ccc(-c3ccc4ncc(-c5ccc(C#N)cc5)n4c3)cc2NC(C)=O)CC1` [Example 169, N-(5-(3-(4-cyanophenyl)imidazo[1,2-a]pyridin-6-yl)-2-(4-(methylamino)piperidine-1-carbonyl)phenyl)acetamide], the half-inhibitory concentration (IC50) on MNK1 and at MNK2 was < 100 nM in each case. Turning to `NC(=O)c1ccc(-c2cnc3cnc(-c4ccc(C(=O)N5CCC(N)CC5)cc4)cn23)cc1` [Example 4, 4-(6-(4-(4-aminopiperidine-1-carbonyl)phenyl)imidazo[1,2-a]pyrazin-3-yl)benzamide hydrochloride], the IC50 on MNK1 (setting [2]) and on MNK2 (setting [3]) was < 100 nM throughout.

Regarding `CC(=O)Nc1cc(-c2ccc3ncc(-c4ccc(C#N)cc4)n3n2)ccc1C(=O)N1CCC(N(C)C)CC1` [Example 81, N-(5-(3-(4-cyanophenyl)imidazo[1,2-b]pyridazin-6-yl)-2-(4-(dimethylamino)piperidine-1-carbonyl)phenyl)acetamide], the IC50 at MNK1 (setting [2]) and at MNK2 (setting [3]) was < 100 nM in each case. In the case of `N#Cc1ccc(-c2cnc3ccc(-c4ccc(C(=O)N5CCCOCC5)cc4)cn23)cc1` [Example 97], the IC50 on MNK1 (setting [2]) and at MNK2 (setting [3]) was < 100 nM each time. In the case of `CC(=O)NC1CCN(C(=O)c2ccc(-c3ccc4ncc(-c5ccc(C#N)cc5)n4n3)cc2)CC1` [Example 57, N-(1-(4-(3-(4-cyanophenyl)imidazo[1,2-b]pyridazin-6-yl)benzoyl)piperidin-4-yl)acetamide], the IC50 at MNK1 (setting [2]) and at MNK2 (setting [3]) was < 100 nM throughout. In the case of `COc1cc(-c2ccc3ncc(-c4ccc(C#N)cc4)n3c2)ccc1C(=O)N1CCOCC1` [Example 158], the half-maximal inhibitory concentration (IC50) at MNK1 (setting [2]) is < 1000 nM; on MNK2 (setting [3]) it was < 100 nM. The matching figures for `O=C1Cc2cc(-c3cnc4ccc(-c5ccc(C(=O)N6CCC(N7CCOCC7)CC6)cc5)nn34)ccc2N1` [Example 94, 5-(6-(4-(4-morpholinopiperidine-1-carbonyl)phenyl)imidazo[1,2-b]pyridazin-3-yl)indolin-2-one]: < 100 nM and < 100 nM.

Turning to `N#Cc1ccc(-c2cnc3ccc(-c4ccc(C(=O)N5CCOCC5)c(N5CCOCC5)c4)cn23)cc1` [Example 160, 4-(6-[3-(morpholin-4-yl)-4-(morpholin-4-ylcarbonyl)phenyl]imidazo[1,2-a]pyridin-3-yl)benzonitrile], the half-inhibitory concentration (IC50) at MNK1 (setting [2]) and on MNK2 (setting [3]) was < 100 nM each time. As for `CC1(C)CCN(C(=O)c2ccc(-c3cn4c(-c5ccc(C(N)=O)cc5)cnc4cn3)cc2)CC1` [Example 3, 4-(6-(4-(4,4-dimethylpiperidine-1-carbonyl)phenyl)imidazo[1,2-a]pyrazin-3-yl)benzamide], the 50% inhibitory concentration (IC50) is < 1000 nM at MNK1 (setting [2]) and < 100 nM on MNK2 (setting [3]).

Take `CC1(N)CCN(C(=O)c2ccc(-c3cn4c(-c5ccc(C#N)cc5)cnc4cn3)cc2F)CC1` [Example 30, 4-(6-(4-(4-amino-4-methylpiperidine-1-carbonyl)-3-fluorophenyl)imidazo[1,2-a]pyrazin-3-yl)benzonitrile]: the IC50 on MNK1 (setting [2]) and on MNK2 (setting [3]) was < 1000 nM in each case. For `N#Cc1ccc(-c2cnn3ccc(-c4ccc(C(=O)N5CCOCC5)c(O)c4)nc23)cc1` [Example 187, 4-(5-(3-hydroxy-4-(morpholine-4-carbonyl)phenyl)pyrazolo[1,5-a]pyrimidin-3-yl)benzonitrile], the half-maximal inhibitory concentration (IC50) at MNK1 (setting [2]) and at MNK2 (setting [3]) was < 100 nM in each case. For `CC1(O)CCN(C(=O)c2ccc(-c3ccc4ncc(-c5ccc(C#N)cc5)n4c3)cc2)CC1` [Example 106, 4-(6-(4-(4-hydroxy-4-methylpiperidine-1-carbonyl)phenyl)imidazo[1,2-a]pyridin-3-yl)benzonitrile], the IC50 at MNK1 (setting [2]) and at MNK2 (setting [3]) was < 100 nM throughout. For the compound `CN1CCN(C(=O)c2ccc(-c3ccc4ncc(-c5ccc(C#N)cc5)n4c3)cc2)CC1=O` [Example 130, 4-(6-(4-(4-methyl-3-oxopiperazine-1-carbonyl)phenyl)imidazo[1,2-a]pyridin-3-yl)benzonitrile], the IC50 on MNK1 (setting [2]) and at MNK2 (setting [3]) was < 100 nM throughout. Consider `Cc1cc(-c2ccc3ncc(-c4ccc(C#N)cc4)n3n2)ccc1C(=O)N1CCN(C)CC1` [Example 74, 4-(6-(3-methyl-4-(4-methylpiperazine-1-carbonyl)phenyl)imidazo[1,2-b]pyridazin-3-yl)benzonitrile], for which the IC50 on MNK1 (setting [2]) and at MNK2 (setting [3]) was < 100 nM each time. As to `CC(=O)N1CCN(C(=O)c2ccc(-c3ccn4ncc(-c5ccc(C#N)cc5)c4n3)cc2)CC1` [Example 184], the IC50 on MNK1 (setting [2]) and on MNK2 (setting [3]) was < 100 nM each time.

As to `O=C(c1ccc(-c2cn3c(-c4ccc(Cl)cc4)cnc3cn2)cc1)N1CCNCC1` [Example 46, (4-(3-(4-chlorophenyl)imidazo[1,2-a]pyrazin-6-yl)phenyl)(piperazin-1-yl)methanone 2,2,2-trifluoroacetate salt], the half-maximal inhibitory concentration (IC50) on MNK1 (setting [2]) and on MNK2 (setting [3]) was < 1000 nM in each case. Consider `CN1CCN(C(=O)c2ccc(-c3ccc4ncc(-c5ccc(C#N)cc5)n4c3)cc2F)CC1` [Example 142, 4-(6-(3-fluoro-4-(4-methylpiperazine-1-carbonyl)phenyl)imidazo[1,2-a]pyridin-3-yl)benzonitrile], for which the IC50 on MNK1 (setting [2]) is < 1000 nM; on MNK2 (setting [3]), < 100 nM. The matching figures for `CC1(N)CCN(C(=O)c2ccc(-c3ccc4ncc(-c5ccc(Cl)cc5)n4c3)cc2)CC1` [Example 173, (4-amino-4-methylpiperidin-1-yl)(4-(3-(4-chlorophenyl)imidazo[1,2-a]pyridin-6-yl)phenyl)methanone]: < 100 nM and < 100 nM.
